Data set [1] concerns Peritoneal macrophages infected with L. (L.) infantum. As to the kind of experiment: Cytokines in infected macrophages (ELISA). To be noted: 48 and 72 h. In kind it is cell-based, BALB/c mice. As for the experimental part: L. (L.) infantum (MHOM/BR/1972/LD) promastigotes were maintained in M199 medium supplemented with 10% FBS and 0.25% hemin, pH 7.2 at 24°C. Amastigotes were isolated from golden hamsters (M. auratus) by differential centrifugation of infected spleens and the parasite’s number was determined according to Stauber ([14]). Peritoneal macrophages were obtained from the peritoneal cavity of BALB/c mice and maintained in RPMI-1640 medium supplemented with 10% FBS, pH 7.2 at 37°C.
Peritoneal macrophages (1 × 10^6/well) were infected with L. (L.) infantum […] (10:1 amastigotes/macrophage) for 24 h, at 37°C with 5% CO2. Subsequently, compound 1 (10 and 60 µM) was added and the incubation followed the same conditions described above. Cell supernatants were collected after 48 and 72 h and the cytokines (IL-4, IL-10, IL-12, and INF-γ) were measured using the BD OptEIA Mouse ELISA set kits, according to the manufacturer’s instructions. Concanavalin A (5 µg/mL) was employed as positive control and untreated cells as negative control.
(In an ELISA, binding on a coated surface is turned into a signal by an enzyme label.)

The test system of data set [2] is amastigotes of L. (L.) infantum. To be noted: cited from earlier work.
Data set [3] in a line: In vivo pharmacokinetic study, intraperitoneal. On the set-up: species or system Wistar rats. To be noted: 5 mg/kg intraperitoneal; for half-life: 5 mg/kg. As for the experimental part:
The detection and quantification of compound 1 in the blood matrices were performed after sample processing, using a liquid-liquid extraction methodology. First, 100 µL of plasma was enriched with 10 µL of PI (0.8 µg/mL). Subsequently, 500 µL of hexane was added and the mixture was vortexed for 1 min and centrifuged at 22,082 × g for 5 min. The organic phase was collected in glass tubes and the aqueous phase was subjected to the liquid-liquid extraction procedure again. In the end, the combined organic samples were completely evaporated at 60°C under nitrogen flow and reconstituted in 100 µL of 40:60 ACN:H2O + 0.1% orthophosphoric acid (pH 2.08). Finally, the extracts were centrifuged at 22,082 × g for 2 min and injected into the chromatographic system. Chromatographic analyses by HPLC were performed using a C18 column (Purospher Star LiChroCART, 55 × 4 mm, 3 µm) with gradient elution (Table 1).
Compound 1 (5 mg/kg) was administered (10 mL/kg in saline-sodium-chloride-0.9%) by intraperitoneal route, to six Wistar rats. Blood samples were collected from the caudal vein at 30 min, 1, 2, 3, 5, 6, 8, 12, and 24 h post-dosing. Plasma samples were prepared as described in the previous section and analyzed by HPLC. Concentrations below the LLOQ were considered as zero. Pharmacokinetic profile was obtained using the WinNonlin 6.4 software, determining different parameters, including half-life time (T½); maximum time (Tmax); maximum plasma concentration (Cmax); area under the curve from time zero to the last measurable concentration time (AUC0-t); area under the curve from zero to infinity (AUC0-inf); percentage of area under the curve extrapolated from the last measurable concentration time to infinity (AUCextrap); and meantime of residence (MRT).

The mark [4] stands for this setting: Wistar, rat, plasma, ip, female rats.
Where [5] appears, read: Wistar, rat, plasma, ip, male rats.
Setting [6] is: both sexes, rat, plasma, ip, single dose, Wistar rats, males + females (mean ± SD).

The IC50 is the point on the concentration scale where inhibition reaches its midpoint. Broadly, the AUC(0-t) is exposure summed from dosing to a finite time, without extrapolation to infinity. Broadly, the Cmax is the maximum level reached in the sampled fluid or tissue. For orientation: MRT means the average time that molecules of a dose stay in the body. By Tmax is commonly meant the time at which the peak concentration occurs. The term half-life denotes the time needed for the level to fall by half in the phase considered. What is called AUC(0-inf) is total exposure, with the tail of the curve extrapolated.

As for `C=CCc1cc(OC)c(OCc2ccc(OC)cc2)c(Oc2ccc(CN3CCOCC3)cc2OC)c1` [compound 1, 4-(4-(5-allyl-3-methoxy-2-((4-methoxybenzyl)oxy)phenoxy)-3-methoxybenzyl)morpholine], the IL-10 levels entry in data set [1] (10 and 60 µM, vs untreated control) is recorded as “reduction”. For the same molecule, in data set [1] (only at 60 µM), the IL-4 levels entry is recorded as “significantly reduced levels”, the IL-12 levels result is recorded as “significantly reduced levels” and the INF-γ levels result is “significantly reduced levels”. Besides, the IC50 in data set [2] (intracellular amastigotes, 24 h incubation, read-out: IC50 against amastigotes of L. (L.) infantum) was 9.7 µM. In addition, the SI in data set [2] (selectivity index) was above 20. Besides, the T1/2 in data set [3] (single dose, Wistar rats, males + females (mean ± SD)) came out at 21.08 ± 17.72 h. For the same molecule, in data set [3] (setting [4]), the AUC(0-t) amounted to 980 ng·h/mL, the Cmax came out at 200 ng/mL, the MRT was 12.8 h and the time of peak concentration (Tmax) came out at 0.5 h. Besides, in data set [3] (setting [5]), the AUC(0-t) came to 650 ng·h/mL, the peak level (Cmax) was 100 ng/mL, the mean residence time (MRT) worked out at 41.1 h and the Tmax is 1.5 h. Further, in data set [3] (both sexes, Wistar, rat, plasma, ip, single dose, Wistar rats, males + females (mean ± SD)), the half-life was 21 h. In data set [3] (setting [6]), the AUC(0-inf) stood at 1270 ± 340 ng·h/mL, the AUC(0-t) came to 810 ± 300 ng·h/mL, the Cmax is 150 ± 80 ng/mL and the mean residence time MRT is 26.9 ± 23.2 h. Further, the Tmax in data set [3] (setting [6]) worked out at 1 ± 1.22 h. This molecule also showed a half-life in data set [3] (female, Wistar, rat, plasma, ip, female rats) of 10.7 h. The molecule further showed a half-life in data set [3] (male, Wistar, rat, plasma, ip, male rats) of 31.4 h.
